We go through 20 compounds from patent publication US20140107109A1, “AMINO-DIHYDROTHIAZINE AND AMINO-DIOXIDO DIHYDROTHIAZINE COMPOUNDS AS BETA-SECRETASE ANTAGONISTS AND METHODS OF USE” (Amgen Inc., priority 2012, published 2014).

For assay [1], the system named is Aβ40 in conditioned medium of cells stably expressing Amyloid Precursor Protein (APP). Kind of assay: In vitro BACE cell-based assay (HEK cell assay), Aβ40 sandwich ELISA. Particulars: Homo sapiens, HEK293. Put shortly: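 APP-stably expressing cells (40K/well, grown 24 h in DMEM/10% FBS) were treated 24 h with compounds in 10-point dose response starting at 100 μM or 10 μM, 0.1% DMSO final. Secreted Aβ40 was measured by sandwich ELISA (pAb40 capture, biotinylated 6E10 detection, europium time-resolved fluorescence); IC50 from percent inhibition.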

Assay [2] has as its target Beta Secretase enzyme (BACE1) (Homo sapiens, UniProt P56817). Description: In vitro enzymatic BACE FRET assay. The settings on record: read-out: BACE1 FRET assay IC50. It counts as biochemical. Put shortly:
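BACE1 cleavage of a 50 nM fluorophore/quencher peptide FRET substrate ran for one hour in 0.05 M acetate pH 4.2, 10% DMSO, 100 uM genapol. Tris buffer raised pH to neutrality to stop the reaction before fluorescence was read (excitation 488 nm, […]).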

For a further assay, the target named is T1, Cathepsin D (Cat D) (Homo sapiens, UniProt P07339).
T1 construct: Recombinant Cat D was expressed in CHO cells; made in house; host or cells: CHO cells
T1 sequence (P07339 65-412, species assumed): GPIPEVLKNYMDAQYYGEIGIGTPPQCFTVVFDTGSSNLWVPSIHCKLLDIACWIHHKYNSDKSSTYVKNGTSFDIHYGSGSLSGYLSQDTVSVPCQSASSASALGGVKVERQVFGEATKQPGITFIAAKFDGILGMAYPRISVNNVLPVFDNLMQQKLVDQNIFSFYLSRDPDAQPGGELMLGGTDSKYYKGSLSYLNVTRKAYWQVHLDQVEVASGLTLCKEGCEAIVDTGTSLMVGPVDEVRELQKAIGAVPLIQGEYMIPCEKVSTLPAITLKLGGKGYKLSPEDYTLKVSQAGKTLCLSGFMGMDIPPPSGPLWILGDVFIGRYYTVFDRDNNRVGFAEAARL
Kind of assay: In vitro enzymatic Cathepsin D (Cat D) FRET assay. Particulars: read-out: CatD IC50. Format: biochemical. Put shortly:
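Recombinant Cat D expressed in CHO cells, used at 9 nM and pre-incubated one hour with serially diluted inhibitor in DMSO. Peptide substrate carries a fluorophore and quencher flanking the cleavage site; reaction stopped with Tris buffer raising pH to neutrality, then fluorescence read.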

Beta Secretase enzyme (BACE1), sequence (P56817 46-501): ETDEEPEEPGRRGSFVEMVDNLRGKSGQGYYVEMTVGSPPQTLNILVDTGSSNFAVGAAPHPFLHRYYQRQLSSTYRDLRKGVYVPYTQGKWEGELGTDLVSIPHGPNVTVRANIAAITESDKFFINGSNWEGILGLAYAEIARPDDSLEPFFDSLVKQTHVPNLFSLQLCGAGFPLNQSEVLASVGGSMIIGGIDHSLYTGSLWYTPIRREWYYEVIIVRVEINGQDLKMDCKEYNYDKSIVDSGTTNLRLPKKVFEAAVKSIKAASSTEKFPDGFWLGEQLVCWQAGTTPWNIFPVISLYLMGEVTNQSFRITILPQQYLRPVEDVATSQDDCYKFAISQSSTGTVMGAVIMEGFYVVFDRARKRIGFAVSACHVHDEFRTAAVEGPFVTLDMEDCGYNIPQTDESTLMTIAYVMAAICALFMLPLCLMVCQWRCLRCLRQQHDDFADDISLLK

`Cc1cc(OCC(F)(F)F)cnc1C(=O)Nc1ccc(F)c([C@]2(CF)CS(=O)(=O)C3(CCC3)C(N)=N2)c1` [Example 374, N-(3-((7S)-9-amino-7-(fluoromethyl)-5,5-dioxido-5-thia-8-azaspiro[3.5]non-8-en-7-yl)-4-fluorophenyl)-3-methyl-5-(2,2,2-trifluoroethoxy)-2-pyridinecarboxamide]: the values for the IC50 (in assay [1]; in assay [2]; at Cathepsin D (Cat D)) were 61.6 nM, 1.1 nM and 630000 nM, respectively.
For `COc1cc(Cl)cnc1C(=O)Nc1ccc(F)c([C@]2(CF)CS(=O)(=O)C3(CCC3)C(N)=N2)c1` [Example 375, N-(3-((7S)-9-amino-7-(fluoromethyl)-5,5-dioxido-5-thia-8-azaspiro[3.5]non-8-en-7-yl)-4-fluorophenyl)-5-chloro-3-methoxy-2-pyridinecarboxamide], in that order: 29.8 nM, 2.9 nM and 781000 nM.
For `CC1(C)C(N)=N[C@](CF)(c2cc(NC(=O)c3cnc(C(F)F)cn3)ccc2F)CS1(=O)=O` [Example 376, N-(3-((3S)-5-amino-3-(fluoromethyl)-6,6-dimethyl-1,1-dioxido-3,6-dihydro-2H-1,4-thiazin-3-yl)-4-fluorophenyl)-5-(difluoromethyl)-2-pyrazinecarboxamide], in that order: 61.5 nM, 2.23 nM and 172000 nM.
For `COc1cnc(C(=O)Nc2ccc(F)c([C@]3(CF)CS(=O)(=O)C(C)(C)C(N)=N3)c2)c(C)c1` [Example 377, N-(3-((3S)-5-amino-3-(fluoromethyl)-6,6-dimethyl-1,1-dioxido-3,6-dihydro-2H-1,4-thiazin-3-yl)-4-fluorophenyl)-5-methoxy-3-methyl-2-pyridinecarboxamide], in that order: 9.8 nM, 3 nM and 335000 nM.
In the case of `CC1(C)C(N)=N[C@](CF)(c2cc(NC(=O)c3ncc(F)cc3F)ccc2F)CS1(=O)=O` [Example 378, N-(3-((3S)-5-amino-3-(fluoromethyl)-6,6-dimethyl-1,1-dioxido-3,6-dihydro-2H-1,4-thiazin-3-yl)-4-fluorophenyl)-3,5-difluoro-2-pyridinecarboxamide], the IC50 in assay [1] is 18 nM; in assay [2], 1.6 nM; on Cathepsin D (Cat D) it was > 400000 nM.
The corresponding values for `CC1(C)C(N)=N[C@](CF)(c2cc(NC(=O)c3ncc(C(F)(F)F)cc3Cl)ccc2F)CS1(=O)=O` [Example 379, N-(3-((3S)-5-amino-3-(fluoromethyl)-6,6-dimethyl-1,1-dioxido-3,6-dihydro-2H-1,4-thiazin-3-yl)-4-fluorophenyl)-3-chloro-5-(trifluoromethyl)-2-pyridinecarboxamide] are 11.5 nM, 0.99 nM and 775000 nM.
For `CC1(C)C(N)=N[C@](CF)(c2cc(NC(=O)c3ncc(Cl)nc3Cl)ccc2F)CS1(=O)=O` [Example 380, N-(3-((3S)-5-amino-3-(fluoromethyl)-6,6-dimethyl-1,1-dioxido-3,6-dihydro-2H-1,4-thiazin-3-yl)-4-fluorophenyl)-3,5-dichloro-2-pyrazinecarboxamide], in that order: 999 nM, 1.8 nM and 282000 nM.
As to `C=Cc1cc(Cl)cnc1C(=O)Nc1ccc(F)c([C@]2(CF)CS(=O)(=O)C(C)(C)C(N)=N2)c1` [Example 381, N-(3-((3S)-5-amino-3-(fluoromethyl)-6,6-dimethyl-1,1-dioxido-3,6-dihydro-2H-1,4-thiazin-3-yl)-4-fluorophenyl)-5-chloro-3-ethenyl-2-pyridinecarboxamide], the IC50 worked out at 53.9 nM in assay [1], 0.86 nM in assay [2] and 194000 nM on Cathepsin D (Cat D).
For `COc1cc(Cl)cnc1C(=O)Nc1ccc(F)c([C@]2(CF)CS(=O)(=O)C(C)(C)C(N)=N2)c1` [Example 382, N-(3-((3S)-5-amino-3-(fluoromethyl)-6,6-dimethyl-1,1-dioxido-3,6-dihydro-2H-1,4-thiazin-3-yl)-4-fluorophenyl)-5-chloro-3-methoxy-2-pyridinecarboxamide], in that order: 17.3 nM, 1.8 nM and > 400000 nM.
The corresponding values for `CC1(C)C(N)=N[C@](CF)(c2cc(NC(=O)c3ccc(C(F)(F)F)cn3)ccc2F)CS1(=O)=O` [Example 383, N-(3-((3S)-5-amino-3-(fluoromethyl)-6,6-dimethyl-1,1-dioxido-3,6-dihydro-2H-1,4-thiazin-3-yl)-4-fluorophenyl)-5-(trifluoromethyl)-2-pyridinecarboxamide] are 20 nM, 2.62 nM and 217000 nM.
The corresponding values for `CC1(C)C(N)=N[C@](C)(c2cc(Nc3ncnc4cc(C#N)cnc34)cnc2F)CS1(=O)=O` [Example 384, 4-((5-((3R)-5-amino-3,6,6-trimethyl-1,1-dioxido-3,6-dihydro-2H-1,4-thiazin-3-yl)-6-fluoro-3-pyridinyl)amino)pyrido[3,2-d]pyrimidine-7-carbonitrile] are 23.9 nM, 6.36 nM and 47300 nM.
Consider `CC1(C)C(N)=N[C@](C)(c2cc(Nc3nccc4cc(C#N)cnc34)cnc2F)CS1(=O)=O` [Example 385, 8-((5-((3R)-5-amino-3,6,6-trimethyl-1,1-dioxido-3,6-dihydro-2H-1,4-thiazin-3-yl)-6-fluoro-3-pyridinyl)amino)-1,7-naphthyridine-3-carbonitrile], for which the results for the IC50 (in assay [1]; in assay [2]; on Cathepsin D (Cat D)) were 3.7 nM, 2.62 nM and 67600 nM, respectively.
The corresponding values for `C[C@@]1(c2cc(Nc3nccc4cc(C#N)cnc34)cnc2F)CS(=O)(=O)C2(CCC2)C(N)=N1` [Example 386, 8-((5-((7R)-9-amino-7-methyl-5,5-dioxido-5-thia-8-azaspiro[3.5]non-8-en-7-yl)-6-fluoro-3-pyridinyl)amino)-1,7-naphthyridine-3-carbonitrile] are 14.1 nM, 4.09 nM and 54700 nM.
The corresponding values for `CC1(C)C(N)=N[C@](CF)(c2cc(Nc3nccc4cc(C#N)cnc34)ccc2F)CS1(=O)=O` [Example 387, 8-((3-((3S)-5-amino-3-(fluoromethyl)-6,6-dimethyl-1,1-dioxido-3,6-dihydro-2H-1,4-thiazin-3-yl)-4-fluorophenyl)amino)-1,7-naphthyridine-3-carbonitrile] are 5.3 nM, 0.44 nM and 117000 nM.
With `Cc1cc(Cl)cnc1C(=O)Nc1ccc(F)c([C@]2(C)CS(=O)(=O)[C@@](C)(F)C(N)=N2)c1` [Example 388, N-(3-((3R,6R)-5-amino-6-fluoro-3,6-dimethyl-1,1-dioxido-3,6-dihydro-2H-1,4-thiazin-3-yl)-4-fluorophenyl)-5-chloro-3-methyl-2-pyridinecarboxamide], the results for the IC50 (in assay [1]; in assay [2]; at Cathepsin D (Cat D)) were 47.9 nM, 0.4 nM and 230000 nM, respectively.
The corresponding values for `CC1(C)C(N)=N[C@](CF)(c2cc(NC(=O)c3ccc(OCC#CCF)cn3)ccc2F)CS1(=O)=O` [Example 389, N-(3-((3S)-5-amino-3-(fluoromethyl)-6,6-dimethyl-1,1-dioxido-3,6-dihydro-2H-1,4-thiazin-3-yl)-4-fluorophenyl)-5-((4-fluoro-2-butyn-1-yl)oxy)-2-pyridinecarboxamide] are 1.4 nM, 0.26 nM and 268000 nM.
For `Cc1c(C(=O)Nc2ccc(F)c([C@]3(CF)CS(=O)(=O)C(C)(C)C(N)=N3)c2)nc2ccc(C#N)cn12` [Example 390, N-(3-((3S)-5-amino-3-(fluoromethyl)-6,6-dimethyl-1,1-dioxido-3,6-dihydro-2H-1,4-thiazin-3-yl)-4-fluorophenyl)-6-cyano-3-methylimidazo[1,2-a]pyridine-2-carboxamide], in that order: 23.6 nM, 4.85 nM and 379000 nM.
The corresponding values for `CC1(C)C(N)=N[C@](CF)(c2cc(NC(=O)c3cn4cc(Cl)ccc4n3)ccc2F)CS1(=O)=O` [Example 391, N-(3-((3S)-5-amino-3-(fluoromethyl)-6,6-dimethyl-1,1-dioxido-3,6-dihydro-2H-1,4-thiazin-3-yl)-4-fluorophenyl)-6-chloroimidazo[1,2-a]pyridine-2-carboxamide] are 36.1 nM, 9.69 nM and 303000 nM.
In the case of `COc1ccc2nc(C(=O)Nc3ccc(F)c([C@]4(CF)CS(=O)(=O)C(C)(C)C(N)=N4)c3)c(C)n2c1` [Example 392, N-(3-((3S)-5-amino-3-(fluoromethyl)-6,6-dimethyl-1,1-dioxido-3,6-dihydro-2H-1,4-thiazin-3-yl)-4-fluorophenyl)-6-methoxy-3-methylimidazo[1,2-a]pyridine-2-carboxamide], the IC50 in assay [1] was 823 nM; in assay [2], 104 nM; at Cathepsin D (Cat D), 97600 nM.
For `Cc1c(C(=O)Nc2ccc(F)c([C@]3(CF)CS(=O)(=O)C(C)(C)C(N)=N3)c2)nc2ccc(F)cn12` [Example 393, N-(3-((3S)-5-amino-3-(fluoromethyl)-6,6-dimethyl-1,1-dioxido-3,6-dihydro-2H-1,4-thiazin-3-yl)-4-fluorophenyl)-6-fluoro-3-methylimidazo[1,2-a]pyridine-2-carboxamide], in that order: 60.5 nM, 11.7 nM and 103000 nM.
